Test results: US20190365641A1, “RAPIDLY DISINTEGRATING FORMULATIONS AND METHODS OF USE” (Impax Laboratories, Inc., priority 2013, published 2019)
≈ marks a conversion by molar mass, not a printed value. Where “and” joins values, the source holds several entries; their conditions need not be identical. Equal entries are not always repeated. Structures can show the parent of a compound that is named as a salt. Where two headings read alike, the source gives them in different places.

What was measured:
[1] = Solubility of apomorphine in phosphate buffers at varying pH (Example 14); format: physicochemical; conditions: stirred ~18 hours
Protocol: The testing procedure was as followings: • 1. […] The samples were stirred for ˜18 hours before analysis. • 4. […] The samples were stirred for ˜18 hours before analysis. • 5. After stirring ˜2mL of the supernatant was obtained from each vial and centrifuge at 12000 RPM to precipitate un-dissolved drug. • 6. After centrifugations, approximately 1 mL of the supernatant was diluted with approximately 50 mL of water: methanol: H3PO4 (50:50:1.2 v/v) for HPLC analysis according to the procedure described in Example 13 above.

[2] = Dissolution in simulated saliva media (Example 15); format: physicochemical; conditions: simulated saliva pH 6.2, 37° C., two samples per time point, hydrochloride
Protocol: The dissolution of the composition as described in Example 5 was compared to the dissolution of USP grade apomorphine hydrochloride. The following procedure was employed to obtain the dissolution profiles: • 1.
• 3. Approximately 5 mL or 10 mL of pre-warmed simulated saliva was added to the vials of step 2 according to the table above, and a stop watch was started. The vials with the media were gently swirled to allow the powder in the vials to go into solution. • 4. At specific time points, samples of the media were withdrawn from the vials of step 3 and transferred into the barrel of a 10 mL syringe with a […] filter attached to the tip of the syringe. The solution was pushed through the filter and collected for HPLC assay according to the procedure described in Example 13 above. • 5. For sample time points longer than 5 minutes the vials of step 3 were placed in a 37° C. incubator and shaken at 50 rpms until the collection time point.

[3] = sublingual apomorphine tablets, prolonged use; cited from earlier work
[4] = subcutaneous injections, on-off fluctuations in Parkinson's disease; cited from earlier work

CN1CCc2cccc3c2[C@H]1Cc1ccc(O)c(O)c1-3 [Apomorphine Free Base, 6αβ-aporphine-10, 11 diol]
solubility ([1]; pH 2.50 phosphate buffer, unit assumed): 9200 µg/mL (≈ 34.4 mM)
solubility ([1]; pH 3.00 phosphate buffer, unit assumed): 3700 µg/mL (≈ 13.8 mM)
solubility ([1]; pH 4.00 phosphate buffer, unit assumed): 2700 µg/mL (≈ 10.1 mM)
solubility ([1]; pH 5.00 phosphate buffer, unit assumed): 2500 µg/mL (≈ 9.35 mM)
solubility ([1]; pH 6.00 phosphate buffer, unit assumed): 2000 µg/mL (≈ 7.48 mM)
solubility ([1]; pH 6.20 phosphate buffer, unit assumed): 1700 µg/mL (≈ 6.36 mM)
solubility ([1]; pH 6.40 phosphate buffer, unit assumed): 1700 µg/mL (≈ 6.36 mM)
solubility ([1]; pH 6.60 phosphate buffer, unit assumed): 1300 µg/mL (≈ 4.86 mM)
solubility ([1]; pH 6.80 phosphate buffer, unit assumed): 1200 µg/mL (≈ 4.49 mM)
solubility ([1]; pH 7.00 phosphate buffer, unit assumed): 670 µg/mL (≈ 2.51 mM)
solubility ([1]; pH 7.40 phosphate buffer, unit assumed): 400 µg/mL (≈ 1.5 mM)
solubility ([1]; pH 8.00 phosphate buffer, unit assumed): 120 µg/mL (≈ 0.449 mM)

CN1CCc2cccc3c2[C@H]1Cc1ccc(O)c(O)c1-3 [Apomorphine HCl, apomorphine hydrochloride]
solubility ([1]; pH 2.50 phosphate buffer, hydrochloride, unit assumed): 22800 µg/mL
solubility ([1]; pH 3.00 phosphate buffer, hydrochloride, unit assumed): 21600 µg/mL
solubility ([1]; pH 4.00 phosphate buffer, hydrochloride, unit assumed): 20000 µg/mL
solubility ([1]; pH 5.00 phosphate buffer, hydrochloride, unit assumed): 18800 µg/mL
solubility ([1]; pH 6.00 phosphate buffer, hydrochloride, unit assumed): 7400 µg/mL
solubility ([1]; pH 6.20 phosphate buffer, hydrochloride, unit assumed): 7200 µg/mL
solubility ([1]; pH 6.40 phosphate buffer, hydrochloride, unit assumed): 3700 µg/mL
solubility ([1]; pH 8.00 phosphate buffer, hydrochloride, unit assumed): 270 µg/mL
solubility ([1]; phosphate buffer, pH 6.6, aqueous buffer, thermodynamic from solid, pH 6.60 phosphate buffer, read-out: solubility): 1900 µg/mL
solubility ([1]; phosphate buffer, pH 6.8, aqueous buffer, thermodynamic from solid, pH 6.80 phosphate buffer, read-out: solubility): 1400 µg/mL
solubility ([1]; phosphate buffer, pH 7, aqueous buffer, thermodynamic from solid, pH 7.00 phosphate buffer, read-out: solubility): 1000 µg/mL
solubility ([1]; phosphate buffer, pH 7.4, aqueous buffer, thermodynamic from solid, pH 7.40 phosphate buffer, read-out: solubility): 610 µg/mL
dissolution ([2]; 0.5 min): 30.52% and 27.73%
dissolution ([2]; 1 min): 34.58% and 30.24%
dissolution ([2]; 5 min): 57.54% and 46.57%
dissolution ([2]; 10 min): 46.00% and 52.29%
dissolution ([2]; 30 min): 53.23% and 74.97%
dissolution ([2]; Initial): 22.75% and 19.05%

CN1CCc2cccc3c2[C@H]1Cc1ccc(O)c(O)c1-3 [apomorphine, 6αβ-aporphine-10, 11 diol]
patients with buccal mucosal ulceration (severe stomatitis) [3]: approximately 30%
duration of effect [4]: 45 to 90 min
time to effect after administration [4]: 5 to 15 min
